We go through one compound from PMC8312464, “Inhibition of heat shock proteins increases autophagosome formation, and reduces the expression of APP, Tau, SOD1 G93A and TDP-43” (Aging (Albany NY), 2021).

Structures are written as SMILES.

In assay [1] the target is T1, GRP78 (Homo sapiens, UniProt P11021).
T1 construct: gene HSPA5; GRP78 expressed from a plasmid in GBM12 cells, immuno-precipitated with an antibody to the COOH terminal portion
The assay can be described thus: ATPase activity (ATP-lite luminescence) of immunoprecipitated GRP78 on Sepharose beads. Format: biochemical.

Assay [2] concerns the target T2, HSP90.
T2 construct: FLAG-tagged HSP90 expressed in GBM12 cells, immuno-precipitated by its tag
The assay can be described thus: ATPase activity (ATP-lite luminescence) of immunoprecipitated FLAG-HSP90 on Sepharose beads. It is filed as biochemical. The text has this:
ATPase activity (ATP-lite luminescence) of immunoprecipitated FLAG-HSP90 on Sepharose beads on HSP90 | In a dose-dependent fashion AR12 inhibited the ATPase activities of HSP90, HSP70 and GRP78

T1 sequence (P11021 19-654): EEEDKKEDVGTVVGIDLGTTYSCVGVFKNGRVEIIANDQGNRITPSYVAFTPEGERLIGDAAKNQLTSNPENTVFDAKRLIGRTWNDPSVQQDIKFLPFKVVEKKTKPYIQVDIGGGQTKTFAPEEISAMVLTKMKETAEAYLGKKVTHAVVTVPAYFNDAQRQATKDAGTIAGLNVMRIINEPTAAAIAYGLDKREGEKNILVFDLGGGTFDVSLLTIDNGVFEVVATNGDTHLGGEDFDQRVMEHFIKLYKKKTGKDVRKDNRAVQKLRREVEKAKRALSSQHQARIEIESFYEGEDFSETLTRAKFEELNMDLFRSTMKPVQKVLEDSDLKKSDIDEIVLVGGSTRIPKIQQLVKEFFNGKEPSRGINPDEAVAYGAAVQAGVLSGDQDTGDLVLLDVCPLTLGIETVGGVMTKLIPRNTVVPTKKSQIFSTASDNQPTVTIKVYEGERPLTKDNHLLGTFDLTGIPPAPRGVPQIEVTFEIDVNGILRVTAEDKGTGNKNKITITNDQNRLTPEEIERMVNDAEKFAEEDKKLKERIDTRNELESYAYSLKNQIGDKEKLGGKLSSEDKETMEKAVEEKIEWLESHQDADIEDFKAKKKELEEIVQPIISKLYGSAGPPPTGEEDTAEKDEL

In general, IC50 refers to the concentration that gives 50% inhibition. A low value points to higher potency. With `NCC(=O)Nc1ccc(-n2nc(C(F)(F)F)cc2-c2ccc3c(ccc4ccccc43)c2)cc1` [AR12], the IC50 in assay [1] is roughly 80 nM; in assay [2], roughly 300 nM.
